Assay results taken from the NIST ThermoML archive (doi:10.1016/j.fluid.2014.05.043).

Assay: mn = molality of the nth substance listed, in mol/kg
Details: 101 kPa, Liquid; for molar conductivity: 293 K, Direct current cell with electrodes; for mass density: Vibrating tube method

CCCCCCCCCCCCCCCCCC(=O)O.NCCO [2-hydroxyethylammonium stearate] + O
Details | molar conductivity [S·m2/mol]
m1 = 2.77e-05 | 0.0501
m1 = 2.83e-05 | 0.0488
m1 = 2.89e-05 | 0.0477
m1 = 2.96e-05 | 0.0464
m1 = 3.03e-05 | 0.0452
m1 = 3.1e-05 | 0.044
m1 = 3.18e-05 | 0.0428
m1 = 3.26e-05 | 0.0415
m1 = 3.34e-05 | 0.0403
m1 = 3.43e-05 | 0.0392
m1 = 3.52e-05 | 0.0383
m1 = 3.61e-05 | 0.0371
m1 = 3.71e-05 | 0.0362
m1 = 3.82e-05 | 0.0347
m1 = 3.93e-05 | 0.0336
m1 = 4.05e-05 | 0.0323
m1 = 4.17e-05 | 0.0311
m1 = 4.31e-05 | 0.0297
m1 = 4.45e-05 | 0.0283
m1 = 4.6e-05 | 0.0271
m1 = 4.76e-05 | 0.0256
m1 = 4.94e-05 | 0.0241
m1 = 5.13e-05 | 0.0227
m1 = 5.33e-05 | 0.0214
m1 = 5.56e-05 | 0.0204
m1 = 5.81e-05 | 0.0194
m1 = 6.09e-05 | 0.0183
m1 = 6.38e-05 | 0.0172
m1 = 6.7e-05 | 0.0163
m1 = 7.07e-05 | 0.0153
m1 = 7.45e-05 | 0.0143

mass density [kg/m3]
Details | m1 = 5.8e-06 | m1 = 1.15e-05 | m1 = 1.73e-05 | m1 = 2.31e-05 | m1 = 2.89e-05
298.15 K | 996 | 994.86 | 997.03 | 996.95 | 997.02
303.15 K | 994.49 | 995.63 | 995.65 | 995.35 | 995.6
308.15 K | 990.78 | 994.03 | 993.99 | 993.62 | 993.99

O [water] + CCCCCCCCCCCCCCCCCC(=O)O.NCCO
m2 = 0
Details | mass density [kg/m3]
298.15 K | 996.06
303.15 K | 994.67
308.15 K | 993.01
